Measurements: patent US20110009362A1, “SOLUBILITY-ENHANCED FORMS OF APREPITANT AND PHARMACEUTICAL COMPOSITIONS THEREOF” (DR. REDDY'S LABORATORIES LTD., priority 2008, published 2011)
≈ marks a conversion by molar mass, not a printed value.

What was measured:
[1] = Saturation solubility of aprepitant forms in water and aqueous HPβCD solutions; assay type: physicochemical; conditions: water, thermodynamic from solid, 1A: pH 7.0
Experimental: Crystalline Form I of aprepitant, amorphous aprepitant, or aprepitant coprecipitate was added to water and to aqueous HPβCD solutions of different concentrations, with stirring until the saturation solubility was reached. […] 1B—pH adjusted to 1.2 using hydrochloric acid. 1C—pH adjusted to 11 with 0.3% sodium bicarbonate solution. Complexes with HPβCD are prepared by adding aprepitant to aqueous solutions of HPβCD and sonicating the solutions to dissolve aprepitant, until saturation is attained.

[2] = Particle size analysis, Malvern Mastersizer; assay type: physicochemical
From the text: The particle size distribution of a material is generally described in terms of D10, D50, D90, and D[4,3], used routinely to describe the particle sizes or size distributions. It is expressed as volume or weight or surface percentages. Dx as used herein is defined as the size of particles where x percent of the particles have sizes less than the value given. D[4,3] is the volume mean diameter of the particles. D90 for example means that 90% of the particles are below the specified particle size. Particle sizes or particle size distributions of the pharmaceutical compositions of aprepitant of the present invention are determined using any techniques that are known to the person skilled in the art including but not limited to sieve analysis, size analysis by laser light scattering such as using a Malvern particle size analyzer (Malvern Instruments Ltd., Malvern, Worcestershire, United Kingdom) and the like. Pharmaceutical compositions of aprepitant of the present invention are generally fine, uniform and free of agglomerates.
As used herein, the term “mean particle size” refers to the distributions of aprepitant particles, including aprepitant co-precipitate particles, wherein about 50 percent of all particles measured have a particle size less than the defined mean particle size value and about 50 percent of all measurable particles measured have a particle size greater than the defined mean particle size value; this can be identified by the term “D50.” Similarly, a particle size distribution where 90 percent of the particles have sizes less than a specified size is referred to as “D90” and a distribution where 10 percent of particles have sizes less than a specified size is referred to as “D10.”
Particle size analysis was carried out using a Malvern Mastersizer.

[3] = cited from earlier work

Row | SMILES | solubility [1] [µg/mL] | Particle Size D10 ([2]; D10) [μm] | Particle Size D50 ([2]; D50) [μm] | Particle Size D90 ([2]; D90) [μm] | solubility in acetonitrile ([3]; acetonitrile) | solubility in ethanol ([3]; ethanol) | solubility in isopropyl alcohol ([3]; isopropyl alcohol) | solubility in water ([3]; water)
1 | C[C@@H](O[C@H]1OCCN(Cc2n[nH]c(=O)[nH]2)[C@H]1c1ccc(F)cc1)c1cc(C(F)(F)F)cc(C(F)(F)F)c1 [Crystalline aprepitant Form I] | 0.5 (≈ 0.936 µM) | 17.1 | 29.2 | 52.0 |  |  |  | 
2 | C[C@@H](O[C@H]1OCCN(Cc2n[nH]c(=O)[nH]2)[C@H]1c1ccc(F)cc1)c1cc(C(F)(F)F)cc(C(F)(F)F)c1 [Aprepitant, 5-[[(2R,3S)-2-[(1R)-1-[3,5-bis(trifluoromethyl)phenyl]ethoxy]-3-(4-fluorophenyl)-4-morpholinyl]methyl]-1,2-dihydro-3H-1,2,4-triazol-3-one] |  |  |  |  | slightly soluble | sparingly soluble | sparingly soluble | practically insoluble
